Laboratory results reported in patent US5248680A, “Zwitterionic compounds and their n-halo derivatives for use in the treatment of clinical conditions” (Bloomfield D.A., priority 1990, dated 1993).
Like-named read-outs stand apart in the source and are kept apart here.

How the values were obtained:
[1] = Skin penetration and percutaneous absorption of 14C-HEPES after a single topical dose; assay type: in vivo, human; conditions: for Mean urinary excretion of radioactivity: mean (S.D.), up to 120 hours
Method: The skin penetration and percutaneous absorption of radioactivity following topical administration of a single does of ^14 C-HEPES (approximately 100 mg 5% cream containing 70 uCi ^14 C) was investigated in two groups of six healthy male volunteers. The dose was applied to intact skin in one group and to skin stripped 10 times with scotch tape in the second group. The unabsorbed material was removed after 12 hours and the area of application was stripped 10 times in order to determine skin penetration. Blood, urine and faeces samples were collected up to 120 hours after dose application for assessment of total radioactivity.

[2] = tested on: peripheral blood neutrophils; test: Chemiluminescence (reactive oxidant production) of peripheral blood neutrophils stimulated with calcium ionophore; assay type: cell-based; conditions: Homo sapiens, Neutrophil, 10 mM HEPES, mean ± S.E.M., read-out: Chemiluminesence production by neutrophils
Description: Patients were selected with mild to moderate plaque-type psoriasis on the basis of clinical and histological evidence of disease. Normal volunteers were selected from laboratory personnel without personal or family history of inflammatory disease. Disease control groups included: a) patients with eczema, acne and dermatitis herpetiformis; and b) patients with Crohn's disease and ulcerative colitis. Blood samples from each subject were drawn into sodium heparin Vacutainers® (Vacutainer is a Trade Mark). The inflammatory cells (neutrophils) were isolated by dextran sedimentation and FICOLL-PAQUE®(FICOLL-PLAQUE is a Trade Mark) gradient centrifugation. Viability and purity were assessed by fluorescence microscopy, using ethidium bromide and acridine orange staining. […] Chemiluminescence activity of the peripheral blood neutrophils was tested using the method of Bloomfield, F. J. and Young, M. M. (Inflammation, (1982) 6, 257, hereby incorporated by reference), using calcium ionophore (2μ Molar) as stimulant instead of opsonized zymosan. Chemiluminescence is a measure of the production of reactive oxidants by neutrophils in response to an inflammatory stimulus. It was observed that there was significant reduction in chemiluminescence activity by neutrophils in the taurine-treated and HEPES-treated cells compared to control cells in all groups.

neutrophils [3] = test: Degranulation of lysosomal enzymes by neutrophils stimulated with calcium ionophore; assay type: cell-based, human; conditions: for activity at 10000 µM: Homo sapiens, Neutrophil, 10 mM HEPES, mean
Description: (§1) Patients were selected with mild to moderate plaque-type psoriasis on the basis of clinical and histological evidence of disease. Normal volunteers were selected from laboratory personnel without personal or family history of inflammatory disease. Disease control groups included: a) patients with eczema, acne and dermatitis herpetiformis; and b) patients with Crohn's disease and ulcerative colitis.
(§2) Blood samples from each subject were drawn into sodium heparin Vacutainers® (Vacutainer is a Trade Mark). The inflammatory cells (neutrophils) were isolated by dextran sedimentation and FICOLL-PAQUE®(FICOLL-PLAQUE is a Trade Mark) gradient centrifugation. Viability and purity were assessed by fluorescence microscopy, using ethidium bromide and acridine orange staining.
Stimulation of the inflammatory process in neutrophils, not only activates the respiratory burst, but as a consequence, is also associated with release of lysosomal enzymes from the cells in a process called degranulation. Degranulation of lysosomal enzymes was stimulated in neutrophils from each group of subjects, using calcium ionophore as inflammatory stimulant.

myeloperoxidase [4] = test: Myeloperoxidase activity of neutrophils after preincubation with zwitterion; assay type: cell-based, human; conditions: 10 mM HEPES, mean ± S.E.M.
Description: as §1, §2

catalase = test: Catalase activity of neutrophils after preincubation; assay type: cell-based, human; conditions: neutrophils preincubated with HEPES or taurine; data not shown
neutrophils [5] = test: Hypochlorous acid production by neutrophils; assay type: cell-based; conditions: Homo sapiens, Neutrophil, 10 mM HEPES, mean ± S.E.M.
Description: as §1, §2

neutrophils [6] = test: Leukotriene B4 in supernatants of stimulated neutrophils; assay type: cell-based, human; conditions: 10 mM HEPES, mean ± S.E.M.; for activity at 10000 µM: Homo sapiens, Neutrophil, read-out: Leukotriene B4 production by neutrophils
Description: as §1, §2
(§3) It was therefore proposed to test the hypothesis that HEPES could inactivate leukotriene B4 by indirect stimulation of MPO leading to increased production of hypochlorous acid from cellular hydrogen peroxide.
For the methodology used in the in vitro studies hereinafter described reference should be made to McLoughlin, D. M. et al. Biochem. Soc. Trans. (1991) 19:73-78 hereby incorporated by reference, except where otherwise stated.

monocytes = test: Leukotriene B4 in stimulated monocytes; assay type: cell-based, human; conditions: preincubation with 10 mM HEPES or 40 mM taurine; data not shown
Description: as §3

[7] = tested on: carrageenan induced paw oedema; test: Carrageenan-induced paw oedema in rats; assay type: in vivo, rat
Method: The studies were conducted on inbred Wistar strain albino rats (120-180 g) of either sex. The rats were housed in colony cages at an ambient temperature of 25°±2° C. and fed on standard pellet chow. The rats were anaesthetized using pentobarbitone sodium, their hind paws were marked and the volume measured. […] The control animals were injected with 10 μl of 0.9% saline solution. […] One hour following the carrageenan injection the hind paw volume was measured again. A 5 ml blood sample was taken from each animal into sodium heparin Vacutainers. Chemiluminescence activity was assayed in the PBMC isolated from each animal.
These studies were also conducted on inbred Wistar strain albino rats (120-180 g) of either sex. The rats were anaesthetized using pentobarbitone sodium prior to marking each hind paw and measuring paw volume. […] The control animals received 0.5 ml of 0.9% NaCl subcutaneously. 30 min after the injections were administered, paw oedema was induced using carrageenan. One hour following carrageenan administration the hind paw volume was measured. A 5 ml blood sample was taken from each animal into sodium heparin Vacutainers and used for chemiluminescence measurement.

myeloperoxidase [8] = test: Binding of zwitterion to myeloperoxidase (preliminary studies)
[9] = Normal + iodide (1 mM potassium iodide)

O=S(=O)(O)CCN1CCN(CCO)CC1 [HEPES, N-2-hydroxyethylpiperazine-N'-2-ethanesulphonic acid]
tolerability of single topical dose ([1]; intact and stripped skin groups): well tolerated | Mean urinary excretion of radioactivity ([1]; intact skin group): 0.07+0.08% of the applied dose | radioactivity in 48-72 hour faecal sample ([1]; one subject of the stripped skin group): 0.11 % of the applied dose | abnormalities in biochemistry, haematology and urinalysis screens ([1]; single topical dose): not considered to be related | radioactivity in plasma or faecal samples ([1]; single topical dose approx. 100 mg 5% cream, intact and stripped skin groups, samples up to 120 hours): No radioactivity was detected | Mean urinary excretion of radioactivity ([1]; stripped skin group): 0.20±0.22% of the applied dose | activity at 10000 µM ([2]; Normal): 28.8 ± 4.24% | activity at 10000 µM ([2]; Psoriasis): 26.9 ± 3.25% | activity at 10000 µM ([2]; disease controls (a) eczema, acne, dermatitis herpetiformis): 28.8 ± 3.84% | activity at 10000 µM ([2]; disease controls (b) Crohn's disease, ulcerative colitis): 25.4 ± 6.4% | activity at 10000 µM (neutrophils [3]; Normal): 104% | activity at 10000 µM (neutrophils [3]; Psoriasis): 104% | activity at 10000 µM (neutrophils [3]; disease controls (a)): 87.2% | degranulation by preincubated neutrophils compared to control cells (neutrophils [3]; result in words, taurine data not shown): no difference in degranulation | Myeloperoxidase activity of neutrophils (myeloperoxidase [4]; Normal): 228 ± 25.4 percentage activity of control | Myeloperoxidase activity of neutrophils (myeloperoxidase [4]; Psoriasis): 247 ± 30.1 percentage activity of control | Myeloperoxidase activity of neutrophils (myeloperoxidase [4]; disease controls (a)): 198 ± 17.1 percentage activity of control | Myeloperoxidase activity of neutrophils (myeloperoxidase [4]; disease controls (b)): 211 ± 56.4 percentage activity of control | effect on catalase activity (catalase): no effect on catalase activity | activity at 10000 µM (neutrophils [5]; Normal): 211 ± 12.5% | activity at 10000 µM (neutrophils [5]; Psoriasis): 193 ± 10.7% | activity at 10000 µM (neutrophils [5]; disease controls (a)): 152 ± 8.3% | Leukotriene B4 production by neutrophils (neutrophils [6]; [9]): no measurable leukotriene B4 | activity at 10000 µM (neutrophils [6]; [9]): 0% | activity at 10000 µM (neutrophils [6]; Normal): 55.8 ± 8.9% | activity at 10000 µM (neutrophils [6]; Psoriasis): 22.4 ± 6.62% | activity at 10000 µM (neutrophils [6]; disease controls (a)): 24.9 ± 8.99% | activity at 10000 µM (neutrophils [6]; disease controls (b)): 16.7 ± 6.42% | reduction of leukotriene B4 in monocytes (monocytes): also demonstrated in monocytes | percentage increase in paw volume ([7]; I.P. 500 μg HEPES, 1 h after carrageenan, mean ± S.E.M.): 23 ± 4 percentage increase in paw volume | reduction in paw oedema ([7]; intraperitoneal 500 μg HEPES, versus control): 50% | binding to the enzyme (MPO) (myeloperoxidase [8]): did not bind to the enzyme
